Experimental findings from patent US20150111864A1, “CRYSTALLINE FORM OF A BETA-LACTAMASE INHIBITOR” (Cubist Pharmaceuticals, Inc., priority 2013, published 2015) are described below.

Experiment [1] deals with Panel of Isogenic and Clinical Strains Expressing β-Lactamases. Description: Standard BLI Potentiation MIC Assay in Combination with Ceftolozane, whole panel. The class given is cell-based. Conditions: panel of 24 strains; BLI at 4 μg/mL. As for the experimental part: (§1) The experimental protocol was performed according to Clinical and Laboratory Standards Institute (CLSI) guidelines with modifications as described below (CLSI guidelines can be derived from the CLSI document M07-A9 published in January 2012: “Methods for Dilution Antimicrobial Susceptibility Tests for Bacteria That Grow Aerobically; Approved Standard-Ninth Edition”).
(§2) Frozen glycerol stocks of laboratory engineered, isogenic E. coli strains, which contain cloned β-lactamase expressing plasmids were used to streak for isolated colonies on rich, selective LB agar supplemented with 25 μg/mL tetracycline to maintain the plasmid. All strains were incubated at 37° C. for 18-24 hrs.
(§3) On the day of testing, primary cultures were started by scraping off 5-10 colonies from the TSAB plates containing clinical strains or the tetracycline supplemented LB plates containing engineered strains. The clinical strain material was suspended in ˜5 mL of cation adjusted Mueller Hinton Broth (CAMHB) in 14 mL culture tubes. The engineered strain material was suspended in CAMHB (supplemented with 25 μg/mL tetracycline) in 14 mL culture tubes. All strains were incubated at 37° C. with aeration (200 rpm) for ˜2 hrs until the optical density at 600 nm (OD600) was ≧0.1.
(§4) The two compound components of the assay were each diluted in CAMHB and added to the 96-well broth microdilution assay plates. 50 μL of the β-lactam was added to each well of the assay plate in 2-fold dilutions with final concentrations ranging from 128 to 0.13 μg/mL. 25 μL of the BLI compound was added to all wells in the broth microdilution plates at a final concentration of 4 μg/mL. Inoculum cultures were prepared by standardizing the primary cultures to OD600=0.1 and then adding 20 μL of the adjusted primary culture per 1 mL CAMHB for clinical strains or CAMHB (supplemented with tetracycline at 100 μg/mL) for engineered strains, so that the final inoculum density was ˜10^5 colony forming units per milliliter. Diluted inoculum cultures were used to inoculate 25 μL per well in 96-well broth microdilution assay plates. The final volume of each well was 100 μL and contained a β-lactam at different concentrations, a BLIcompound at 4 μg/mL concentration, the bacterial culture at an OD600 of approximately 0.001 and when necessary tetracycline at 25 μg/mL.
(§5) Plates were incubated for 18-20 hours at 37° C. with aeration (200 rpm). Following incubation, growth was confirmed visually placing plates over a viewing apparatus (stand with a mirror underneath) and then OD600 was measured using a SpectraMax 340PC384 plate reader (Molecular Devices, Sunnyvale, Calif.). Growth was defined as turbidity that could be detected with the naked eye or achieving minimum OD600 of 0.1. […]

For a further experiment, the system named is Cfr.568 (AmpC, clinical). Kind of experiment: Standard BLI Potentiation MIC Assay in Combination with Ceftolozane. It is filed as cell-based, Citrobacter spp. Particulars: Cfr.568, AmpC, clinical; BLI at 4 μg/mL. The protocol:
as §1, §2
(§6) On the day of testing, primary cultures were started by scraping off 5-10 colonies from the TSAB plates containing clinical strains or the tetracycline supplemented LB plates containing engineered strains. […]
as §5

Experiment [2] deals with Eco.2491 (CMY-2, clinical). Described as above. Conditions: Eco.2491, CMY-2, clinical; BLI at 4 μg/mL. The class given is cell-based, Escherichia coli. The protocol:
as §1, §2, §3, §4
(§7) Plates were incubated for 18-20 hours at 37° C. with aeration (200 rpm). Following incubation, growth was confirmed visually placing plates over a viewing apparatus (stand with a mirror underneath) and then OD600 was measured using a SpectraMax 340PC384 plate reader (Molecular Devices, Sunnyvale, Calif.). Growth was defined as turbidity that could be detected with the naked eye or achieving minimum OD600 of 0.1. MIC values were defined as the lowest concentration producing no visible turbidity.

Experiment [3] relates to Eco.2845 (OXA-15, isogenic). The description is as above. The class given is cell-based, Escherichia coli. Particulars: Eco.2845, OXA-15, isogenic; BLI at 4 μg/mL. The protocol: as §1, §2, §3, §4, §7
In experiment [4] the test system is Eco.2843 (DHA-1, isogenic). Described as above. It is filed as cell-based, Escherichia coli. Particulars: Eco.2843, DHA-1, isogenic; BLI at 4 μg/mL. As for the experimental part:
as §1, §2, §3, §4, §7

Experiment [5] relates to Pae.2757 (AmpC over-expn, clinical). The description is as above. The class given is cell-based, Pseudomonas aeruginosa. Conditions: Pae.2757, AmpC over-expn, clinical; BLI at 4 μg/mL. As for the experimental part:
as §1, §2, §3, §4, §7

Experiment [6] relates to Pae.2885 (AmpC, clinical). The description is as above. It is filed as cell-based, Pseudomonas aeruginosa. Conditions: Pae.2885, AmpC, clinical; BLI at 4 μg/mL. The protocol:
as §1, §2, §3, §4, §7

Experiment [7] deals with Pae.2863 (AmpC de-repress, clinical). The experiment is described as above. Particulars: Pae.2863, AmpC de-repress, clinical; BLI at 4 μg/mL. The class given is cell-based, Pseudomonas aeruginosa. As for the experimental part: as §1, §2, §3, §4, §7
In experiment [8] the test system is Eco isogenic strain expressing OXA-15. Description: Synergy MIC (sMIC) assay. It is filed as cell-based, Escherichia coli. Particulars: β-Lactam CXA-101 at 4 μg/mL; OXA-15, isogenic Eco. As for the experimental part: (§8) The synergy MIC (sMIC) assay determines the concentration of the BLI required to potentiate the activity of a fixed concentration of a β-lactam antibiotic against β-lactamase producing bacterial strains. The experimental protocol was performed according to Clinical and Laboratory Standards Institute (CLSI) guidelines with modifications as described below (CLSI guidelines can be derived from the CLSI document M07-A9 published in January 2012: “Methods for Dilution Antimicrobial Susceptibility Tests for Bacteria That Grow Aerobically; Approved Standard-Ninth Edition”). The assay wa set-up by serially diluting the BLI across 11 of the 12 wells in each row of a 96-well broth microdilution assay plate, adding the β-lactam at a fixed concentration to all wells in the assay plate, inoculating the assay plate with bacterial strains, and determining the lowest concentration of BLI required to inhibit overnight bacterial growth.
as §2
(§9) On the day of testing, primary cultures were started by scraping off 5-10 colonies from the TSAB plates containing clinical strains or the tetracycline supplemented LB plates containing engineered strains. The clinical strain material was suspended in ˜5 mL of cation adjusted Mueller Hinton Broth (CAMHB) in 14 mL culture tubes. The engineered strain material was suspended in CAMHB (supplemented with tetracycline at 25 μg/mL) in 14 mL culture tubes. All strains were incubated at 37° C. with aeration (200 rpm) for ≧2 hrs until the OD600 was ≧0.1.
(§10) The two compound components of the assay were each prepared in CAMHB and added to the 96-well broth microdilution assay plates. 50 μL of the BLI was added to each well of the assay plate in 2-fold dilutions with final concentrations ranging from 128 to 0.13 μg/mL. 25 μL of the β-lactam was added to all wells in the broth microdilution plates at a final concentration of 4 μg/mL. Inoculum cultures were prepared by standardizing the primary cultures to OD600=0.1 and then adding 20 μL of the adjusted primary culture per 1 mL CAMHB for clinical strains or CAMHB (supplemented with tetracycline at 100 μg/mL) for isogenic strains, so that the final inoculum density was ˜10^5 colony forming units per milliliter. Diluted inoculum cultures were used to inoculate 25 μL per well in 96-well broth microdilution assay plates. The final volume of each well was 100 μL and contained a BLI at different concentrations, a β-lactam at 4 μg/mL concentration, the bacterial culture at an OD600 of approximately 0.001 and when necessary tetracycline at 25 ug/mL.
(§11) Plates were incubated for 18-20 hours at 37° C. with aeration (200 rpm). Following incubation, growth was confirmed visually placing plates over a viewing apparatus (stand with a mirror underneath) and then OD600 was measured using a SpectraMax 340PC384 plate reader (Molecular Devices, Sunnyvale, Calif.). Growth was defined as turbidity that could be detected with the naked eye or achieving minimum OD600 of 0.1. sMIC values were defined as the lowest concentration producing no visible turbidity. […]

For experiment [9], the system named is Eco isogenic strain expressing P99. Description: Synergy MIC (sMIC) assay. The class given is cell-based, Escherichia coli. Conditions: β-Lactam CXA-101 at 4 μg/mL. As for the experimental part: as §8, §2, §9, §10, §11
For experiment [10], the system named is Eco isogenic strain expressing CTX-M-15. Description: Synergy MIC (sMIC) assay. It is filed as cell-based, Escherichia coli. Conditions: β-Lactam CXA-101 at 4 μg/mL; CTX-M-15, isogenic Eco. The protocol:
as §8, §2, §9, §10, §11

Experiment [11] relates to Eco isogenic strain, β-Lactamase none. Kind of experiment: Synergy MIC (sMIC) assay. The class given is cell-based, Escherichia coli. Particulars: β-Lactam none. The protocol:
as §8, §2, §9, §10, §11

Experiment [12] concerns Eco isogenic strain expressing SHV-12. Description: Synergy MIC (sMIC) assay. It is filed as cell-based, Escherichia coli. Particulars: β-Lactam CXA-101 at 4 μg/mL; SHV-12, isogenic Eco. As for the experimental part: as §8, §2, §9, §10, §11
The subject of another experiment is Ecl.569 (AmpC, clinical). Kind of experiment: Standard BLI Potentiation MIC Assay in Combination with Ceftolozane. Particulars: Ecl.569, AmpC, clinical; BLI at 4 μg/mL. The class given is cell-based, Enterobacter spp. As for the experimental part: as §1, §2, §6, §5

“(2S,5R)-2-(5-(3-aminopropyl)-1,3,4-oxadiazol-2-yl)-7-oxo-1,6-diazabicyclo[3.2.1]octan-6-yl hydrogen sulfate [ψ]”: in [1], the “MIC50 of Ceftolozane in combination with BLI” value is listed as “A (A = 0.25-0.5 μg/mL)”. In addition, the “MIC90 of Ceftolozane in combination with BLI” value in experiment [1] is “B (B = 1-2 μg/mL)”. The “MIC of Ceftolozane in combination with BLI” value in the experiment on Cfr.568 (AmpC, clinical) is given as “A (A = 0.25-0.5 μg/mL)”; in [2], “AA (AA = <0.25 μg/mL)”; in experiment [3], “B (B = 1-2 μg/mL)”; in experiment [4], “AA (AA = <0.25 μg/mL)”; in experiment [5] it was “B (B = 1-2 μg/mL)”; in experiment [6] it was “A (A = 0.25-0.5 μg/mL)”. The “MIC of Ceftolozane in combination with BLI” value is reported as “B (B = 1-2 μg/mL)” in experiment [7] and “A (A = 0.25-0.5 μg/mL)” in the experiment with Ecl.569 (AmpC, clinical). Also, the sMIC result in experiment [8] was “B (B = 1-2 μg/mL)”; in experiment [9] it was “B (B = 1-2 μg/mL)”; in experiment [10], “A (A = 0.25-0.5 μg/mL)”; in experiment [11], “D (D = 16-32 μg/mL)”; in experiment [12], “B (B = 1-2 μg/mL)”.
